For the assay, the system named is yeast cells. Nature of the assay: Replicative lifespan (RLS) measurement with the DAP yeast strain and 96-well microfluidic device. It is filed as cell-based, Saccharomyces cerevisiae. On the procedure:
The IDS2GH or IDS2RH transformed yeast cells were cultured in YEPG [For 1 L medium: Bacto yeast extract (Difco 0127-17) (1%) 10 g, Bacto peptone (Difco 0118-17) (2%) 20 g, Galactose (2%) 20 g] at 30° C. for 15 hours, after which time the cells were diluted 1:20 in fresh YEPG and grown for another 3 hours. The cells were centrifuged and washed 3 times with YEP [For 1 L medium: Bacto yeast extract (Difco 0127-17) (1%) 10 g, Bacto peptone (Difco 0118-17) (2%) 20 g]. Finally, the cells were resuspended in an equal volume of YEP, then diluted at a 1:5 ratio in fresh YEP and incubated at 30° C. for another 3 hours; this last step allowed separation of any aggregates of cells.
The water in the wells was discarded, and 100 μl of cells (˜1×10^6 cells/ml) were loaded into inlet wells in columns 1, 4, 7, 10 of the multiwell plate. The plate was then sealed with the 32-channel cover by applying vacuum to the sealing channel, and cell flow started by applying 4 psi air pressure to the loading channel for 10 seconds. Any remaining cells in the wells are discarded, and 300 μl autoclaved ddH2O added to wash the cells, applying 25 psi air pressure to the loading channel for 10 seconds. The remaining water in the wells was again discarded, and 300 μl YEPD [For 1 L medium: Bacto yeast extract (Difco 0127-17) (1%) 10 g, Bacto peptone (Difco 0118-17) (2%) 20 g, Dextrose (2%) 20 g] added, and the cells were washed by applying 2 psi air pressure to the loading channel for 240 seconds. The remaining YEPD in the wells was discarded and 300 μl fresh YEPD added to each well in columns 1, 3, 4, 6, 7, 9, 10, 12. […]
Using the DAP system and the high-throughput microfluidic devices, the lifespan of a number of mutants and the effect of several drugs on lifespan were analyzed. […] The total number of cells in each trapping unit was counted and the fluorescent signal was used to determine the number of DAP mother cells loaded in the trapping unit, allowing the lifespan of the mother cells to be determined unambiguously. […]

`CN(C)C(=N)N=C(N)N` [metformin]: the lifespan extension effect result (range of concentrations tested from 4 μM to 8 mM, data not shown) is “not observed”.

`CO[C@H]1C[C@@H]2CC[C@@H](C)[C@@](O)(O2)C(=O)C(=O)N2CCCC[C@H]2C(=O)O[C@H]([C@H](C)C[C@@H]2CC[C@@H](O)[C@H](OC)C2)CC(=O)[C@H](C)/C=C(\C)[C@@H](O)[C@@H](OC)C(=O)[C@H](C)C[C@H](C)/C=C/C=C/C=C/1C` [rapamycin]: the lifespan extension (100 nM concentration, three independent experiments, p=2.4×10^−10, FIG. 4A) worked out at 19%. With `NCCCCNCCCN` [spermidine], the lifespan extension (200 JIM concentration, p=6×10^−6, FIG. 4B) is given as 28%.

The values are drawn from patent publication US20210340552A1, “High-Throughput Screening Platform for Longevity Genes and Anti-Aging Drugs” (The Regents of the University of California, priority 2018, published 2021).
